Publication PMC2857964 (Bioorganic & medicinal chemistry letters, 2010)

Target: hMC4R (Homo sapiens, UniProt P32245)
Assay: Saturation binding of Eu-labeled probe to Hek293 cells overexpressing hMC4R
Conditions: Kd of labeled ligand compared with parental ligand MSH(4)

Sequence of hMC4R (P32245 whole entry): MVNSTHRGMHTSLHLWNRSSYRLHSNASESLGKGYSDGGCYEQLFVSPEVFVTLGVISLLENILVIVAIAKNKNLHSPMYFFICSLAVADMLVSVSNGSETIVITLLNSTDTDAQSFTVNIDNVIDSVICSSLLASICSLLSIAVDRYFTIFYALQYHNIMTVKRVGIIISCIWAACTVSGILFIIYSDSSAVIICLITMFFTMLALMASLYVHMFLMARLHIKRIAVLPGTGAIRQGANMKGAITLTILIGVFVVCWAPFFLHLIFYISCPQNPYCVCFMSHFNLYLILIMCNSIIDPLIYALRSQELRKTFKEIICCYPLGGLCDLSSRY

## N=C(N)NCCC[C@H](NC(=O)[C@@H](Cc1ccccc1)NC(=O)[C@H](Cc1c[nH]cn1)NC(=O)COCC(=O)NCCCOCCOCCOCCCNC(=O)CN(CCN(CCN(CC(=O)O)CC(=O)O)CC(=O)O)CC(=O)O)C(=O)N[C@@H](Cc1c[nH]c2ccccc12)C(N)=O [compound 1, Eu-DTPA-PEGO-His-DPhe-Arg-Trp-NH2]
  Affinity for hMC4R, fold lower than the parental ligand: approximately 10 fold
